Data reported in patent publication US5635197A, “Treatment and prevention of prostatic cancer metastasis” (priority 1995, dated 1997).

Target: T1, Human Type I Steroid 5α-Reductase (Homo sapiens, UniProt P18405)
T1 construct: Preparation of Type I 5α-Reductase from Human Scalp; from tissue; host or cells: human scalp punch biopsies from hair transplant procedures; 100,000 x g pellet of skin homogenate
T1 sequence (P18405 1-259): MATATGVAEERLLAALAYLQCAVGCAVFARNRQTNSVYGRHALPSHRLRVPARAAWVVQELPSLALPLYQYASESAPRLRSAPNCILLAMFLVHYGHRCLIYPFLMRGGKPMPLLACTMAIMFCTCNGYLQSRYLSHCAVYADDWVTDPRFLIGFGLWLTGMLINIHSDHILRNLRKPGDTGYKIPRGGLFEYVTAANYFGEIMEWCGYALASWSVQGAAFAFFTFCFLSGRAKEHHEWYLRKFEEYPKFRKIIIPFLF
Experiment: Human Type I steroid 5α-reductase homogenate assay (conversion of [3H]-testosterone to [3H]-5α-dihydrotestosterone)
Assay type: biochemical
Details: 0.3 μM concentration; compared to control reaction mixtures; enzyme from human scalp, pH 7.5, 25°, 180 min
From the text: Methodology of Human Type I Steroid 5α-Reductase Assays
Approximately 60-75 punches from one surgical procedure were used to generate an enzyme preparation. The subcutaneous tissue was cut away and discarded. The skin was frozen with liquid nitrogen and pulverized to powder. […] The homogenization procedure consisted of four 15 second pulses. Connective tissue was cleared from the probe with forceps between pulses. […] The pellet was resuspended by homogenization with a Dounce homogenizer using the same buffer solution. […] Aliquots of the enzyme preparation were stored at -80° until use.
The reaction was initiated by the addition of 0.5 mg of Type I 5α-reductase. The reaction mixture was incubated at 25° for 180 min, and terminated by the addition of 1 mL ice-cold stopping solution. […] The samples were prepared for high performance liquid chromatography by solid phase extraction. […] The reaction mixtures were then applied to the columns. The columns were subsequently washed with 5 mL of acetone:water (1:4), followed by 0.3 mL of methanol. The samples were then eluted with 3 mL of methanol and collected in 20 mL scintillation vials. Three mL of water was then added to each scintillation vial. […] The column temperature was maintained at 35° and the flow rate was 1.5 mL/min.

Compound	percent inhibition of Type I 5AR [%]
CN1C(=O)CC[C@]2(C)c3ccc(-c4ccc(-c5ccc(NC(=O)C(C)(C)C)s5)cc4)cc3CC[C@@H]12 [Example 222, (+)-(4aR)-(10bR)-4-methyl-8-(4-[(2-t-butylcarbonylamino]-5-thienyl]phenyl)-10b-methyl-1,2,3,4,4a,5,6,10b-octahydrobenzo[f]quinolin-3-one]	86
(+)-(4aR)-(10bR)-4-methyl-8-(3-[1-benzyl-4-piperidinylcarboxamido]phenyl)-10b-methyl-1,2,3,4,4a,5,6,10b-octahydrobenzo[f]quinolin-3-one [Example 209]	24
(+)-(4aR)-(10bR)-4-methyl-8-(3-t-butylcarboxamidophenyl)-10b-methyl-1,2,3,4,4a,5,6,10b-octahydrobenzo[f]quinolin-3-one [Example 34]	13
(+)-(4aR)-(10bR)-4-methyl-8-benzyloxycarbonyl-10b-methyl-1,2,3,4,4a,5,6,10b-octahydrobenzo[f]quinolin-3-one [Example 144]	90
